In brackets after ≈: the same amount, converted by molar mass.
How the values were obtained:
[1] = system: Soybean; assay: Post-emergent herbicidal test, soybean; format: in vivo; parameters: key: 1: no perceptible injury; 2: intermediate degrees of injury; 3: intermediate degrees of injury; 4: intermediate degrees of injury; 5: the plant was dead; conditions: 2500 parts per million, after ten days; for Post-emergent Herbicidal, Soybean: Table II; for Post Emergent Herbicidal, Soybean: Table III
Experimental: (§1) Suspensions of the test compounds were prepared by dissolving one gram of compound in 50 milliliters of acetone in which had been dissolved 0.1 gram (10 percent of the weight of compound) of an alkylphenoxyethanol sufactant, as an emulsifying or dispersing agent. The resulting solution was mixed into 160 milliliters of water to give roughly 200 milliliters of a suspension containing the compound in finely divided form. The thus prepared stock suspension contained 0.5 percent by weight of compound. The test concentrations employed in the tests described below were obtained by diluting the stock suspension with water. The test procedures were as follows:
(§2) Experiments were also conducted to determine the phytotoxicity of representative compositions with respect to healthy fresh plants. Solutions of the compounds were prepared as described above to provide a concentration of 2500 parts per million of the test compound. The test plants were sprayed in accordance with the procedure described above for the Mite Foliage Spray Test so as to deliver approximately 100 milliliters of test solutions to the leaves of each plant tested. The sprayed plants and controls were set aside for approximately one hour to allow the solutions to dry and were then placed in the greenhouse. After ten days the plants were visually inspected to determine the extent of foliage injury. A rating of 1 indicates no perceptible injury; 5 indicates the plant was dead and ratings of 2, 3 and 4 indicate intermediate degrees of injury based upon the number and extent to which leaves were injured.

[2] = system: Red root pigweed (Amaranthus); assay: Preliminary herbicide seed germination test (pre-emergent), red root pigweed; format: in vivo, Amaranthus retroflexus; parameters: key: 5: no seedling emerged; 4: few seedlings emerged and/or very severe stunting; 3: moderate reduction in stand and/or moderate stunting.; 2: very slight reduction in stand and/or slight stunting; 1: no injury, seedlings appear no different with respect to stand or growth than untreated controls; conditions: ten to twelve days after application
Experimental: as §1
(§3) The following seeds were used in this test:
Red root pigweed--Amaranthus retroflexus
(§4) Two […] mixtures were prepared as follows:
(§5) Each of the above mixtures was rolled separately in 5 gallon containers for approximately one-half hour on ball mill to insure uniform mixing of seeds and soil. For each compound four 3-inch pots were filled with soil to within 11/2 inches of top of pots. To two of these pots were added 70 cc. of Mixture I. To the remaining 2 pots were added 70 cc. of Mixture II. The seed-soil mixture was tamped firmly, and the pots were removed to the greenhouse and watered lightly. About 2 hours after planting, 25 milliliters of the test formulation were added to one pot containing Mixture I and one pot containing Mixture II. An equal volume of a water solution containing acetone and an emulsifier in the same concentration as the herbicidal mixture but without the candidate herbicide was also added to each of the soil-seed mixtures. These pots are used as check or control units. The test compounds were formulated by diluting the stock suspension with water to obtain the desired concentration of the compound in parts per million of the final formulation. Each compound was tested at the same concentration. […] Ratings were made according to the following designations: […]

[3] = system: Mustard; assay: Preliminary herbicide seed germination test (pre-emergent), mustard; format: in vivo, Brassica pincea var. foliosa (Florida broadleaf); parameters: key: 5: no seedling emerged; 4: few seedlings emerged and/or very severe stunting; 3: moderate reduction in stand and/or moderate stunting.; 2: very slight reduction in stand and/or slight stunting; 1: no injury, seedlings appear no different with respect to stand or growth than untreated controls; conditions: ten to twelve days after application
Experimental: as §1, §3
Mustard--Brassica pincea var. foliosa (Florida broadleaf)
as §4, §5

[4] = system: Bean; assay: Post-emergent herbicidal test, bean; format: in vivo; parameters: key: 1: no perceptible injury; 2: intermediate degrees of injury; 3: intermediate degrees of injury; 4: intermediate degrees of injury; 5: the plant was dead; conditions: 2500 parts per million, after ten days; for Post-emergent Herbicidal, Bean: Table II; for Post Emergent Herbicidal, Bean: Table III
Experimental: as §1, §2

[5] = system: Tomato; assay: Post-emergent herbicidal test, tomato; format: in vivo; parameters: key: 1: no perceptible injury; 2: intermediate degrees of injury; 3: intermediate degrees of injury; 4: intermediate degrees of injury; 5: the plant was dead; conditions: 2500 parts per million, after ten days; for Post-emergent Herbicidal, Tomato: Table II; for Post Emergent Herbicidal, Tomato: Table III
Experimental: as §1, §2

[6] = system: egg of the two-spotted mite; assay: Mite Ovicide Test (eggs); format: in vivo, Tetranychus urticae (Koch); parameters: key to Miticidal, Egg: A: Excellent Control; B: Partial Control; No Control; conditions: for Miticidal, Egg: Table II, unhatched eggs after four days; for LC50: Tetranychus urticae, Table III, ppm required for a 50 percent kill of eggs, read-out: Miticidal LD50, Egg
Experimental: Suspensions of the test compounds were prepared by dissolving one gram of compound in 50 milliliters of acetone in which had been dissolved 0.1 gram (10 percent of the weight of compound) of an alkylphenoxyethanol sufactant, as an emulsifying or dispersing agent. The resulting solution was mixed into 160 milliliters of water to give roughly 200 milliliters of a suspension containing the compound in finely divided form. The thus prepared stock suspension contained 0.5 percent by weight of compound. The test concentrations employed in the tests described below were obtained by diluting the stock suspension with water. The test procedures were as follows: The test organism was the egg of the two-spotted mite (Tetranychus urticae (Koch)), as obtained from adults reared on […] bean plants under controlled conditions of 80±5° F. and 50±5 percent relative humidity. Heavily infested leaves from a stock culture were placed on the primary leaves of two bean plants six to eight inches in height growing in a two-and-a-half inch clay pot. Females were allowed to oviposit for a period of 48 hours and the leaves of the infested plants were dipped in a solution containing 800 parts of tetraethyl pyrophosphate per million parts of water in order to destroy the reproductory forms and thus prevent further egg laying. […] The plants were allowed to dry thoroughly. The test compounds were formulated by diluting the stock suspension with water to give a suspension containing varying amounts of test compound per million parts of final formulation. The potted plants (one pot per compound) were placed on a revolving turntable and sprayed with 100-110 milliliters of test compound formulation by use of a DeVilbis spray gun set at 40 spig. air pressure. This application which lasted 30 seconds, was sufficient to wet the plants to run-off. As a control, 100-110 milliliters of a water solution containing acetone and emulsifier in the same concentrations as the test compound formulation, but containing no test compound, were also sprayed on plants infested with eggs. The sprayed plants were held at 80±5° F. and 50±5 percent relative humidity for four days, after which a microscopic examination was made of unhatched (dead) and hatched (living) eggs. In these tests the pesticidal activity of the compounds against mites and mite eggs was rated as follows: Tests were conducted in accordance with the procedures given at pages 17 to 21 supra. The results are expressed in the same manner as used in Table II, except with respect to miticidal activity. For mite adult and mite egg comparison purposes, results are given in parts per million (ppm) required for a 50 percent kill of mites or eggs, respectively.

[7] = system: Crabgrass; assay: Preliminary herbicide seed germination test (pre-emergent), crabgrass; format: in vivo, Digitaria sanguinalis; parameters: key: 5: no seedling emerged; 4: few seedlings emerged and/or very severe stunting; 3: moderate reduction in stand and/or moderate stunting.; 2: very slight reduction in stand and/or slight stunting; 1: no injury, seedlings appear no different with respect to stand or growth than untreated controls; conditions: ten to twelve days after application
Experimental: as §1, §3
Crabgrass--Digitaria sanguinalis
as §4, §5

Row | SMILES | Post-emergent Herbicidal, Soybean [1] | Pre-emergent Herbicidal, Amaranthus ([2]; Table II) | Pre-emergent Herbicidal, Mustard ([3]; Table II) | Post-emergent Herbicidal, Bean [4] | Post-emergent Herbicidal, Tomato [5] | Miticidal, Egg [6] | Pre-emergent Herbicidal, Crabgrass ([7]; Table II) | Post Emergent Herbicidal, Soybean [1] | Pre-emergent Herbicidal, Amaranthus ([2]; Table III) | Pre-emergent Herbicidal, Mustard ([3]; Table III) | Post Emergent Herbicidal, Bean [4] | Post Emergent Herbicidal, Tomato [5] | LC50 [6] | Pre-emergent Herbicidal, Crabgrass ([7]; Table III)
1 | CCCCCCCCCCCCCCCC(=O)OC1=C(c2ccccc2C)C(=O)C2CCCCC12 (stereo not drawn) [Compound 24] | 2 | 2 | 3 | 1 | 1 | A | 3 |  |  |  |  |  |  | 
2 | CCCCC(CC)C(=O)OC1=C(c2ccccc2C)C(=O)C2CCCCC12 (stereo not drawn) [Compound 21, 3-(2-Ethylhexanoyloxy)-2-(2'-methylphenyl)-4,5,6,7,8,9-hexahydro-2-indenone] | 2 | 2 | 1 | 1 | 1 | A | 2 |  |  |  |  |  |  | 
3 | CCCCC(CC)C(=O)OC1=C(c2cc(C)ccc2C)C(=O)CC1 (stereo not drawn) [Compound 13] | 3 | 1 | 1 | 2 | 2 | A | 1 |  |  |  |  |  |  | 
4 | Cc1ccccc1C1=C(OC(=O)C(C)(C)C)C2CCCCC2C1=O (stereo not drawn) [Compound 22] | 3 | 2 | 3 | 2 | 1 | A | 3 |  |  |  |  |  |  | 
5 | CCCCCCCCCC(=O)OC1=C(c2ccccc2C)C(=O)C2CCCCC12 (stereo not drawn) [drawing 15] |  |  |  |  |  |  |  | 3 | 3 | 3 | 2 | 1 | 1 mg/L (≈ 2.52 µM) | 3
6 | CCCCC(CC)C(=O)OC1=C(c2ccc(C)cc2C)C(=O)C2CCCCC12 (stereo not drawn) [Compound 26, 3-(2-ethylhexanoyloxy)-2-(2',4'-dimethylphenyl)-4,5,6,7,8,9-hexahydro-2-indenone] | 2 | 1 | 1 | 2 | 2 | A | 1 |  |  |  |  |  |  | 
7 | Cc1ccc(C)c(C2=C(OC(=O)C(C)C)CC(C)C2=O)c1 (stereo not drawn) [Compound 16] | 2 | 3 | 2 | 3 | 2 | B | 1 |  |  |  |  |  |  | 
8 | CCCCCCCCCC(=O)OC1=C(c2cc(C)ccc2C)C(=O)c2ccccc21 [reference compound] |  |  |  |  |  |  |  | 0 | 1 | 1 | 1 | 1 | 500 mg/L (≈ 1240 µM) | 1
9 | O=C1CCC(OC(=O)c2ccccc2)=C1c1ccccc1Cl [Compound 2] | 2 | 1 | 1 | 3 | 2 | A | 3 |  |  |  |  |  |  | 
10 | Cc1ccc(C)c(C2=C(OC(=O)C(C)(C)C)C3CCCCC3C2=O)c1 (stereo not drawn) [Compound 31] | 2 | 1 | 1 | 1 | 1 | A | 1 |  |  |  |  |  |  | 
11 | Cc1ccc(C)c(C2=C(OC(=O)C(C)C)C3CCCCC3C2=O)c1 (stereo not drawn) [Compound 29] | 2 | 1 | 1 | 1 | 1 | A | 1 |  |  |  |  |  |  | 
12 | Cc1ccccc1C1=C(OC(=O)C(C)(C)C)c2ccccc2C1=O [reference compound] |  |  |  |  |  |  |  | 0 | 2 | 2 | 1 | 1 | 270 mg/L (≈ 843 µM) | 2

Source: patent US4551547A, “Biocidal 2-aryl-1, 3-cyclopentanedione enol ester compounds” (Union Carbide Corporation, priority 1983, dated 1985)
